We go through 18 compounds from ChEMBL document CHEMBL1201862, “PubChem BioAssay data set” (2004).

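Results reflect a 48-hour exposure of cells in 96-well plates to compound at five concentrations. At the GI50, growth is halved.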 The source made the active and inactive calls. Cut-off read from the data, not from the text of the source: active = GI50 up to about 1.1 µM and inactive = higher. A value given as a limit tells only on which side of the number the result lay.

Among the test systems are LXFL 529; M19-MEL; XF498; DLD-1; MDA-MB-231; Hs-578T; BT-549; MDA-N.
What all share (assay): growth of human tumour cells (NCI), 48 h

For the compound `CC1=CC2=C(C)C3(CC3)[C@@](C)(O)C(=O)C2=C1`, the GI50 with LXFL 529 is 0.223 µM (active); in the assay with M19-MEL, 0.254 µM (active); with XF498, 0.17 µM (active); in the assay on DLD-1, 0.276 µM (active).

On to `CN(C)CCNC(=O)c1cccc2ccc(-c3ccc(Br)cc3)nc12`, for which the GI50 in the assay on M19-MEL is 2.24 µM (inactive); with XF498 it was 2.16 µM (inactive); with DLD-1 it was 2.59 µM (inactive).

Take `Cc1c(-c2ccccc2)[nH]c2cc(Cl)ccc2c1=O`: the GI50 in the assay on MDA-MB-231 was 70.8 µM (inactive); with Hs-578T it was 14.8 µM (inactive); in the assay with BT-549 it was > 100 µM (inactive); in the assay on MDA-N, 10.2 µM (inactive).

Regarding `N#C/C(=C/c1ccc[nH]1)P(=O)(O)O`, the GI50 in the assay with LXFL 529, in the assay with M19-MEL, with XF498 and with DLD-1 was > 100 µM (inactive) in each case.

On to `O=C1OC2C(O)COC2(O)C1(O)Cc1c[nH]c2ccccc12.O=C1OC2C(O)COC2(OCc2c[nH]c3ccccc23)C1O` (centres undefined), for which the GI50 in the assay with LXFL 529, in the assay on M19-MEL, with XF498 and in the assay on DLD-1 was > 100 µM (inactive) each time.

For the compound `COC(=O)CCC(NC(=S)N/N=C(\C)c1cccs1)C(=O)OC` (centres undefined), the GI50 with LXFL 529, with M19-MEL, with XF498 and with DLD-1 was > 100 µM (inactive) throughout.

Turning to `Cc1nc2c(s/c(=N\N)n2-c2ccccc2)c(=O)[nH]1`, the GI50 in the assay with LXFL 529, in the assay on M19-MEL, with XF498 and with DLD-1 was > 100 µM (inactive) in each case.

With `CCCN1CN(C(C(=O)N[C@@H]2C(=O)N3C(C(=O)O)=C(C)CSC23)c2ccccc2)CSC1=S` (some centres undefined), the GI50 with LXFL 529, in the assay with M19-MEL and in the assay on DLD-1 was > 100 µM (inactive) in each case.

Take `COc1ccc(C2COc3c(ccc(O)c3C)C2)cc1OC` (centres undefined): the GI50 is 83 µM (inactive) in the assay with M19-MEL, 22.9 µM (inactive) in the assay on XF498 and 42 µM (inactive) in the assay on DLD-1.

Take `COc1ccc(/C(Cl)=C(\C=O)c2ccccc2)cc1OC`: the GI50 in the assay with LXFL 529 is 12.4 µM (inactive); in the assay on M19-MEL, 13.6 µM (inactive); with DLD-1, 15.1 µM (inactive).

Turning to `O=c1c2ccccc2nc(-c2ccccc2)n1NC(=S)Nc1ccccc1`, the values for the GI50 in the assay with LXFL 529, in the assay with M19-MEL and in the assay with DLD-1 were 81.8 µM (inactive), 94.4 µM (inactive) and > 100 µM (inactive), respectively.

For the compound `Cn1c(=O)n(C2(C)C[Se]C2)c2ccccc21`, the GI50 in the assay with LXFL 529, in the assay with M19-MEL and in the assay on DLD-1 was > 100 µM (inactive) throughout.

As to `Nc1nc(N)c2ncn(CC(CO)CC(c3ccccc3)P(=O)(O)O)c2n1` (centres undefined), the GI50 with M19-MEL, with XF498 and in the assay with DLD-1 was > 100 µM (inactive) throughout.

In the case of `CC(=O)OCC1OC(NC(=O)N(CCCl)N=O)C(OC(C)=O)C(OC(C)=O)C1OC(C)=O` (centres undefined), the results for the GI50 with M19-MEL, with XF498 and in the assay with DLD-1 were > 100 µM (inactive), 75.9 µM (inactive) and > 100 µM (inactive), respectively.

`NC(CCCCCP(=O)(O)O)C(=O)O` (centres undefined) [AP-7]: the GI50 with MDA-MB-231, with Hs-578T, with BT-549 and in the assay on MDA-N was > 100 µM (inactive) throughout.

As to `O=C1c2cccnc2-c2nccc3c2c1nc1ccccc13` [ASCIDIDEMIN], the GI50 in the assay on MDA-MB-231 was 0.188 µM (active); in the assay on Hs-578T it was 0.637 µM (active); with BT-549 it was 0.169 µM (active); in the assay on MDA-N, 0.157 µM (active).

On to `Nc1ccccc1NC(=O)c1ccc(CNC(=O)OCc2cccnc2)cc1` [ENTINOSTAT], for which the GI50 in the assay with MDA-MB-231 is 2.1 µM (inactive); in the assay on Hs-578T it was 3.31 µM (inactive); in the assay with BT-549, 3.5 µM (inactive); in the assay with MDA-N it was 0.778 µM (active).

For `CC1CC(C)(O)CC(C(O)CC2CC(=O)NC(=O)C2)C1=O` (centres undefined) [RESACTIN A], the GI50 with MDA-MB-231 is < 0.01 µM (active); with Hs-578T, < 0.0126 µM (active); in the assay on BT-549, 0.113 µM (active); with MDA-N, 0.0372 µM (active).
